Experiment: Dissolution temperature of coupler in tricresyl phosphate and ethyl acetate
Format: physicochemical
Conditions: 1 g coupler, tricresyl phosphate of equal weight and ethyl acetate of three times the weight; temperature at which the coupler was completely dissolved
Excerpt: Structures of comparative couplers a to e are respectively shown below. [drawing 115] [drawing 116] [drawing 117] [drawing 118] [drawing 119]

Row | Structure (SMILES) | Dissolution Temperature [°C]
1 | CCC(C)(C)c1ccc(OCCCCNC(=O)c2nn3c(-c4cc(Cl)cc(Cl)c4)n[nH]c3c2Cl)c(C(C)(C)CC)c1 [Coupler b] | 60
2 | CCC(C)(C)c1ccc(OCCCCNC(=O)C(NC(=O)c2nn3c(-c4ccc(Cl)c(Cl)c4)n[nH]c3c2Cl)C(C)C)c(C(C)(C)CC)c1 (centres unmarked) [Coupler d] | 60
